We go through one compound from patent US9630939B2, “Derivative of homoserine lactone, and preparation method and use thereof” (priority 2013, dated 2017).

Data set [1] relates to C. violaceum CV026. Nature of the data set: Measurement of IC50 of compounds having an inhibitory effect on C. violaceum quorum sensing (purple pigment absorbance at 585 nm). As to conditions: Chromobacterium violaceum, read-out: IC50 of compounds having bacterial quorum sensing inhibitory activity. It is filed as cell-based. Here is the method:
2.1 The wells of a 12-well plate were marked as initial concentration, 2, 4, 8, 16, 32, 64, 128, 256, DMSO group, and a blank control group from left to right and from up to bottom, respectively.
2.2 The monoclonal C. violaceum CV026 grew on LB solid plate was cultured to exponational phase in a 5 ml fresh LB liquid culture medium, 50 μl was then taken for seeding in a 5 ml LB culture medium, and was cultured until the optical density OD value was about 1.0 at 585 nm; the culture was then mixed well with LB culture medium at a ratio of 1:9 by volume (with OD of about 0.15), and was added to a 12-well plate in an amount of 2 ml/well.
2.3 The compounds preliminarily screened to have quorum sensing inhibitory activity were dissolved respectively in DMSO (at a concentration of 0.065M), and then 10 μl was taken into 10 μl DMSO solution to achieve the purpose of 2-fold dilution, and so on. Each compound was gradiently diluted to a highest fold of 256 (gradient dilution of 2, 4, 8, 16, 32, 64, 128, 256 fold).
2.4 To each well, 15 μl 1000-fold diluted inducer C6—HSL (initial concentration of 0.125M) and 8 μl compound solution at each diluted gradient was added; to DMSO control group, 8 μl DMSO was added; to a blank control group, 8 μl LB culture medium was added. Finally, it was ensured that 2 ml culture in each of the 12-well plate was mixed well.
2.5 The 12-well plate was placed in a 30° C. shaker at 130 rpm and was cultured for 10-12 h.
2.6 After the culture was finished, 1 ml culture was taken from each well and was put in a 1.5 ml EP tube and then was centrifugated at 12000 rpm for 10 mins. The supernatant of the culture was sucked out, and 500 μl DMSO was added to each EP tube to dissolve the purple pigment in the culture. After the pigment was completely dissolved, centrifugation was performed at 12000 rpm for 10 mins. 200 μl supernatant pigment was put in a 96-well culture plate, and was measured for absorbance value at 585 nm by a Microplate Reader, […] the absorbance value and the corresponding concentration were plotted to get the IC50 value.

For data set [2], the system named is C. violaceum CV026. Kind of data set: Preliminary screening of bacterial quorum sensing agonistic / inhibitory activity on LB plate (purple stain / white circle). It is filed as cell-based. As to conditions: 1 μl of 0.065M compound spotted on LB plate with C. violaceum CV026, without (agonistic) or with inducer C6-HSL (inhibitory), 30° C., 16-18 h. As for the experimental part:
1.1 Preparation work: different compounds to be tested (Compounds 1-29 prepared in Example 1-29 and intermediates 1-3) were weighted and then were dissolved in 200 μl DMSO (dimethyl sulfoxide) to prepare a solution at a concentration of 0.065M. 5.0 mg inducer, N-hexanoyl homoserine lactone (C6-HSL, purchased from Sigma Company), was weighted and was dissolved in 200 μl DMSO (at a concentration of 0.125M), and the compounds and the inducer were stored at 4[…] for further use. C. violaceum CV026 (donated by Professor McLean J C from Texas State University) in LB culture medium (LB culture medium consisting of 1% (percentage by mass) tryptone, 0.5% (percentage by mass) yeast extract, 1% (percentage by mass) NaCl and water) was cultured under shaking in a shaker at 30 °C, 200 rpm to get the culture medium for further use.
1.2 Method for preliminary screening of compounds having agonistic activity: 400 μl C. violaceum CV026 (at a bacterial concentration of 1×10^8/ml) was added to 5 ml melted semi-solid LB culture medium, and was mixed well; the mixed culture medium was poured into a solid LB plate; when the mixed culture medium was solidified on the plate, lattice was made thereon; 1 μl of the dissolved compounds to be tested (Compounds 1-29 in Examples 1-29, at a concentration of 0.065M) was spotted on the plate; when the compounds on the plate was dried in air, the plate was put in a 30° C. oven upside down and was cultured for a period of 16-18 h. If the compound to be tested has an agonistic effect on C. violaceum CV026 on the LB plate, purple stain will be induced on the LB plate. The agonistic activity of a compound is determined depending on whether purple stain is induced for C. violaceum CV026 on LB plate as well as the purple depth.
1.3 Method for preliminary screening of compounds having inhibitory activity: the inducer C6—HSL was diluted gradiently to 1000 times by means of 2-fold dilution; 15 μl diluted inducer and 400 μl C. violaceum CV026 in exponential phase (at a bacterial concentration of 1×10^8/ml) were mixed well and then were added to a 5 ml melted semi-solid LB culture medium; the mixture of inducer, C. violaceum, and semi-solid LB was poured onto a solid LB plate; when the mixture was solidified on the plate, lattice was made thereon; 1 μl of the dissolved compounds to be tested (Compounds 1-29 prepared in Example 1-29 and intermediates 1-3, at a concentration of 0.065M) was spotted on the plate; when the compounds on the plate were dried in air, the plate was put in a 30° C. oven upside down and was cultured for a period of 16-18 h. […] The inhibitory activity of a compound is preliminary determined depending on the size of the white circle appeared after C. violaceum CV026 was inhibited on LB plate.

The compound `O=C(Nc1ccc(S(=O)(=O)N[C@H]2CCOC2=O)cc1)c1ccccc1C(F)(F)F` [Compound 27, (S)-2-trifluoromethyl-N-(4-(N-(2-oxotetrahydrofuran-3-yl)sulfamoyl)phenyl)benzamide] showed a melting point of 186 to 187 °C. The IC50 in the data set with C. violaceum CV026 [1] amounted to 4.91 ± 0.97 µM. Also, the “Regulatory activity (bacterial quorum sensing)” value in the data set with C. violaceum CV026 [2] is on record as “−”.
